The text below walks through data of patent US20150273013A1, “AGONISTS OF GUANYLATE CYCLASE USEFUL FOR THE TREATMENT OF GASTROINTESTINAL DISORDERS, INFLAMMATION, CANCER AND OTHER DISORDERS” (Synergy Pharmaceuticals, Inc., priority 2014, published 2015).

Bridges are numbered along the chain shown (N, C = ends). Where no end group is shown, it is not given here. [ ]: non-standard residue; d: D form.

The test system of experiment [1] is non-inflammatory partial restraint stress induced hypersensitivity to colorectal distension (CRD). As to the kind of experiment: Partial restraint stress induced hypersensitivity to colorectal distension, oral treatment. It counts as in vivo, rat. The following applies: partial restraint stress model, oral doses of 0.01 and 0.05 mg/kg; for number of abdominal contractions in response to CRD: intracolonic distension pressures between 15 and 60 mm Hg. The protocol:
(§1) Oral Treatment with Plecanatide and Sp-333, Agonists of Guanylate Cyclase-C, Attenuates Visceral Hypersensitivity in Rat Models
(§2) Oral treatment with plecanatide (Asn Asp Glu Cys Glu Leu Cys Val Asn Val Ala Cys Thr Gly Cys Leu) or SP-333 (dAsn Asp Glu Cys Glu Leu Cys Val Asn Val Ala Cys Thr Gly Cys dLeu), homologues of UG, was evaluated in rodent models of inflammatory (TNBS) and non-inflammatory partial restraint stress induced hypersensitivity to colorectal distension (CRD).

For experiment [2], the system named is colitis in murine models. The following applies: oral treatment, Shailubhai et al. 2009; cited from earlier work.
For experiment [3], the system named is inflammatory (TNBS) induced hypersensitivity to colorectal distension (CRD). Put plainly: TNBS (inflammatory) induced hypersensitivity to colorectal distension, oral treatment. It counts as in vivo, rat. To be noted: for colonic wall elasticity / number of abdominal contractions in response to CRD: TNBS model, oral doses of 0.01 and 0.05 mg/kg; for number of abdominal contractions in response to CRD: intracolonic distension pressures between 15 and 60 mm Hg; for colonic volume adaptation to increasing pressure: after TNBS instillation, pressures between 15 and 60 mm Hg. On the procedure:
as §1, §2

Turning to “Asn Asp Glu Cys Glu Leu Cys Val Asn Val Ala Cys Thr Gly Cys Leu (NDECELCVNVACTGCL; disulfide 4-12, 7-15) [plecanatide, GC-C agonist, homologue of uroguanylin, (C4:C12, C7:C15) bicycle peptide]”, in experiment [1], the colonic wall elasticity entry was “without significantly altering” and the “number of abdominal contractions in response to CRD” value (shortened to “number of abdominal contractions”) is on record as “effectively reduced”. Also, the effect on colitis entry in experiment [2] is reported as “ameliorate colitis”. In addition, in experiment [3], the colonic wall elasticity entry is on record as “without significantly altering”, the “number of abdominal contractions” value is “effectively reduced” and the “colonic volume adaptation to increasing pressure” value is “reduced”.
For “dAsn Asp Glu Cys Glu Leu Cys Val Asn Val Ala Cys Thr Gly Cys dLeu ([dN]DECELCVNVACTGC[dL]; disulfide 4-12, 7-15) [SP-333, GC-C agonist, homologue of uroguanylin, (C4:C12, C7:C15) bicycle peptide]”, in experiment [1], the colonic wall elasticity entry is recorded as “without significantly altering” and the “number of abdominal contractions” value was “effectively reduced”. Also, the effect on colitis result in experiment [2] is reported as “ameliorate colitis”. In experiment [3], the colonic wall elasticity result is listed as “without significantly altering”, the “number of abdominal contractions” value is recorded as “effectively reduced” and the “colonic volume adaptation to increasing pressure” value is given as “reduced”.
